Reference: patent US8450479B2, “3-substituted-4-oxo-3,4-dihydro-imidazo[5,1-d][1,2,3,5-tetrazine-8-carboxylic acid amides and their use” (Pharminox Limited, priority 2007, dated 2013)
Like-named read-outs stand apart in the source and are kept apart here.

Tests used:
Assay in all cases: MTT assay for 7-day toxicity assay
Assay type in all cases: cell-based
[1] = system: Colon HT29 (MMR proficient); conditions: Homo sapiens, HT-29, 168 h, Colon HT29 (MMR proficient); 7-day MTT; single determinations; read-out: GI50
Description: (§1) The cell culture techniques were carried out in a Class II microbiological safety cabinet which was swabbed with 70% IMS in distilled water before each use. Glioma cells were routinely cultured in Costar tissue culture flasks in RPMI 1640 liquid medium (containing 0.3 g/L L-glutamine and 2 g/L sodium bicarbonate) supplemented with 10% heat inactivated FBS (55-59° C.) for 1 hour to denature complement proteins which would otherwise evoke a cellular immune response resulting in cell lysis, 1% non-essential amino acids, 50 μg/mL gentamicin and 400 μg/mL G418 (vector selected reagent). Colorectal and melanoma cells were maintained in RPMI 1640 supplemented with 10% FBS. MRC-5 cells were cultured in EMEM. Cells were grown in a humidified incubator containing 5% CO2 at 37° C. Cells were sub-cultured when growth exceeded approximately 80% confluence, normally twice weekly. The medium was aspirated from the flask and approximately 0.8 mL trypsin-EDTA 1× solution added. The cells were re-incubated at 37° C. until they visibly detached from the flask. The cell suspension was then re-suspended in 5 mL medium and 0.5-1 mL of the cell suspension was transferred to a new flask (25 cm^2) with 7 mL culture medium. The cells were further incubated at 37° C. incubator. Cells were disposed after passage nearly 30 times in order to minimize phenotypic drift. New batches of cells were taken from liquid nitrogen storage by thawing rapidly (37° C. water bath) and re-suspension in a 25 cm^2 flask with 10 mL of culture medium. Two passages were allowed to resume normal growth. For long-term maintenance, viable cells at 60-80% confluence were detached by minimum amount of trypsin/EDTA and re-suspended in sterile filtered freezing medium (95% FBS, 5% DMSO), transferred to sterile cryogenic vials, and frozen overnight at −20° C. followed by −80° C. for 1-2 days and stored in liquid nitrogen for long term storage.
(§2) Most test compounds, including temozolomide, were prepared as stock solution (100 mM) in DMSO and stored at −20° C. for not more than 6 months.
(§3) This assay was first described in Mosmann, T., 1983, “Rapid colorimetric assay for cellular growth and survival: Application to proliferation and cytotoxicity assays”, Journal of Immunological Methods, Vol. 65, Nos. 1-2, pp. 55-63.
(§4) Glioma cell lines, SNB19 and U373, both MGMT transfected (i.e., SNB19M and U373M) and vector controls (i.e., SNB19V and U373V); colorectal carcinoma cell lines, HCT116, HT29, and DLD1; melanoma cell line, SKMEL-28; breast cell line, MCF-7; and normal human fetal lung fibroblast cell line, MRC-5; were harvested at 60-80% confluence—during the logarithmic phase of growth.
(§5) Following harvesting, cells in suspension were gently syringed through a 23 gauge needle to obtain a near-single cell suspension. The desired cell seeding densities were used and added into 96-well plates in 180 μL culture medium if only one test compound was to be added, or 160 μL if two test compounds were to be added in combination, which were allowed to attach at 37° C. (5% CO2) overnight. For the 7 day assay, the cell seeding density for different cell lines was as follows: SNB19V, SNB19M: 650 cells/well; U373V, U373M: 650 cells/well; SNB19VR, U373VR: 650 cells/well; HCT116, DLD-1, SKMEL-28, MRC-5, MCF-7: 400 cells/well.
(§6) The two peripheral lanes were used as blank wells (cell free) and filled with 200 μL of medium in order to minimise medium evaporation from the plate. A separate time zero (T0) plate was set up alongside other plates. Serial dilutions in tissue culture medium of a 100 mM stock of test compound in DMSO were prepared immediately before each assay to ten times the final concentrations required, and then 20 μL was added to each well (200 μL total media per well) to achieve final concentrations of 0.5 μM, 1 μM, 5 μM, 10 μM, 50 μM, 100 μM, 500 μM, and 1000 μM. A minimum of four wells received the same test compound concentration. […]

[2] = system: Colon HCT116 (MMR mutated); conditions: Homo sapiens, HCT-116, 168 h, Colon HCT116 (MMR mutated); 7-day MTT; single determinations; read-out: GI50
Description: as §1, §2, §3, §4, §5, §6

[3] = system: Melanoma SKMEL-28 (MMR proficient); conditions: Homo sapiens, SK-MEL-28, 168 h, Melanoma SKMEL-28 (MMR proficient); 7-day MTT; single determinations; read-out: GI50
Description: as §1, §2, §3, §4, §5, §6

[4] = system: Glioma U373M (MGMT+); conditions: Glioma U373M (MGMT+), 7-day MTT, single determinations, read-out: GI50
Description: as §1, with “Glioma cells were routinely cultured in Costar tissue culture flasks in RPMI 1640 liquid medium (containing 0.3 g/L L-glutamine and 2 g/L sodium bicarbonate) supplemented with 10% heat inactivated FBS (55-59° C.) for 1 hour to denature complement proteins which would otherwise evoke a cellular immune response resulting in cell lysis, 1% non-essential amino acids, 50 μg/mL gentamicin and 400 μg/mL G418 (vector selected reagent). Colorectal and melanoma cells were maintained in RPMI 1640 supplemented with 10% FBS.” left out
as §2, §4, §5
(§7) The two peripheral lanes were used as blank wells (cell free) and filled with 200 μL of medium in order to minimise medium evaporation from the plate. A separate time zero (T0) plate was set up alongside other plates. Serial dilutions in tissue culture medium of a 100 mM stock of test compound in DMSO were prepared immediately before each assay to ten times the final concentrations required, and then 20 μL was added to each well (200 μL total media per well) to achieve final concentrations of 0.5 μM, 1 μM, 5 μM, 10 μM, 50 μM, 100 μM, 500 μM, and 1000 μM. A minimum of four wells received the same test compound concentration. To control wells, including those in the T0 plate, 20 μL of medium was added. […] A separate plate treated in the same way, but free of test compound, was used as a measure of cell viability at the time of drug addition (day 0).
(§8) After incubation at 37° C., 5% CO2 for 7 days (or immediately for the day 0 plate), cell viability was quantified using the MTT assay. 50 μL of sterile filtered MIT (3-(4,5-dimethylthiazol-2-yl)-2,5-diphenyltetrazolium bromide) (2 mg/mL in phosphate buffered saline) were added to each well (final concentration 0.4 mg/mL) and the plates were re-incubated for 4 hours to allow metabolic conversion of MTT by dehydrogenases in viable cells to insoluble formazan crystals.
(§9) The intensity of absorbance is directly proportional to cell viability.

[5] = system: Glioma SNB19V (MGMT−); conditions: Glioma SNB19V (MGMT−), 7-day MTT, single determinations, read-out: GI50
Description: as §1, with “Glioma cells were routinely cultured in Costar tissue culture flasks in RPMI 1640 liquid medium (containing 0.3 g/L L-glutamine and 2 g/L sodium bicarbonate) supplemented with 10% heat inactivated FBS (55-59° C.) for 1 hour to denature complement proteins which would otherwise evoke a cellular immune response resulting in cell lysis, 1% non-essential amino acids, 50 μg/mL gentamicin and 400 μg/mL G418 (vector selected reagent). Colorectal and melanoma cells were maintained in RPMI 1640 supplemented with 10% FBS.” left out
as §2, §4, §5, §7, §8, §9

[6] = system: Glioma U373V (MGMT low); conditions: Glioma U373V (MGMT low), 7-day MTT, single determinations, read-out: GI50
Description: as §1, with “Glioma cells were routinely cultured in Costar tissue culture flasks in RPMI 1640 liquid medium (containing 0.3 g/L L-glutamine and 2 g/L sodium bicarbonate) supplemented with 10% heat inactivated FBS (55-59° C.) for 1 hour to denature complement proteins which would otherwise evoke a cellular immune response resulting in cell lysis, 1% non-essential amino acids, 50 μg/mL gentamicin and 400 μg/mL G418 (vector selected reagent). Colorectal and melanoma cells were maintained in RPMI 1640 supplemented with 10% FBS.” left out
as §2, §4, §5, §7, §8, §9

[7] = system: Glioma SNB19M (MGMT+); conditions: Glioma SNB19M (MGMT+), 7-day MTT, single determinations, read-out: GI50
Description: as §1, with “Glioma cells were routinely cultured in Costar tissue culture flasks in RPMI 1640 liquid medium (containing 0.3 g/L L-glutamine and 2 g/L sodium bicarbonate) supplemented with 10% heat inactivated FBS (55-59° C.) for 1 hour to denature complement proteins which would otherwise evoke a cellular immune response resulting in cell lysis, 1% non-essential amino acids, 50 μg/mL gentamicin and 400 μg/mL G418 (vector selected reagent). Colorectal and melanoma cells were maintained in RPMI 1640 supplemented with 10% FBS.” left out
as §2, §4, §5, §7, §8, §9

## COc1cc(Cn2nnc3c(C(N)=O)ncn3c2=O)cc(OC)c1OC [AA-002, 4-Oxo-3-(3,4,5-trimethoxybenzyl)-3,4-dihydroimidazo[5,1-d][1,2,3,5]tetrazine-8-carboxamide]
[1]
  GI50: 128 µM
[2]
  GI50: 393 µM
[3]
  GI50: 293 µM

## NC(=O)c1ncn2c(=O)n(CC3CCCC3)nnc12 [GG-002, 3-(Cyclopentyl)methyl-8-carbamoylimidazotetrazin-4-one]
[4]; 168 h
  GI50: 642 µM
[4]
  GI50: 728 µM
[5]; 168 h
  GI50: 888 µM
[5]
  GI50: 751 µM
[6]; 168 h
  GI50: 790 µM
[6]
  GI50: > 1000 µM
[7]; 168 h
  GI50: 796 µM
[7]
  GI50: 602 µM

## CNC(=O)Cn1nnc2c(C(N)=O)ncn2c1=O [JJ-002, N-Methyl (8-Carbamoyl-oxoimidazo[5,1-d][1,2,3,5]tetrazin-3(4H)-yl)ethanamide]
[4]; 168 h
  GI50: 306 µM
[4]
  GI50: 221 µM
[5]; 168 h
  GI50: 73.5 µM
[5]
  GI50: 58.1 µM
[6]; 168 h
  GI50: 234 µM
[6]
  GI50: 287 µM
[7]; 168 h
  GI50: 258 µM
[7]
  GI50: 235 µM

## CN(C)C(=O)Cn1nnc2c(C(N)=O)ncn2c1=O [JJ-003, N,N-Dimethyl (8-Carbamoyl-oxoimidazo[5,1-d][1,2,3,5]tetrazin-3(4H)-yl)ethanamide]
[4]; 168 h
  GI50: 98.6 µM
[4]
  GI50: 86.4 µM
[5]; 168 h
  GI50: 73.6 µM
[5]
  GI50: 61.8 µM
[6]; 168 h
  GI50: 92.4 µM
[6]
  GI50: 77.8 µM
[7]; 168 h
  GI50: 78.6 µM
[7]
  GI50: 68.1 µM

## NC(=O)c1ncn2c(=O)n(CC(=O)N3CCOCC3)nnc12 [JJ-005, N-(8-Carbamoyl-oxoimidazo[5,1-d][1,2,3,5]tetrazin-3(4H)-yl)ethanoyl morpholine]
[4]; 168 h
  GI50: 90.4 µM
[4]
  GI50: 173 µM
[5]; 168 h
  GI50: 70.3 µM
[5]
  GI50: 52.4 µM
[6]; 168 h
  GI50: 195 µM
[6]
  GI50: 291 µM
[7]; 168 h
  GI50: 119 µM
[7]
  GI50: 84.9 µM
